Patent US9662372B2 (priority 2013, dated 2017)
Where a SMILES comes first, the peptide text is derived from it. Where no end group is shown, it is not given here. [ ]: non-standard residue; d: D form. βAla = NCCC(=O)O

These compounds were tested on C. difficile ATCC 9689 (assay: not given). Details: not given.
Assay type: cell-based, Clostridium difficile

Row | Compound | Toxin [ng/mL] | Toxin induction (rank, in words) | Effect on toxin production (in words)
1 | Tyr-Phe | <0.122 |  | 
2 | Lys-Trp | 5277 |  | 
3 | Nc1ccn([C@@H]2O[C@@H]3COP(=O)(O)O[C@H]3[C@H]2O)c(=O)n1 [Cytidine 3′,5′-Cyclic Monophosphate] | 321 |  | 
4 | Nc1ncnc2nc[nH]c12 [Adenine] |  | strongest toxin inducer | 
5 | CCCCN [N-Butylamine] | 5679 |  | 
6 | Arg-Gln | 8912 |  | 
7 | Val-Asp | 225 |  | 
8 | CC(C)C[C@H](NC(=O)[C@@H](N)CC(C)C)C(=O)O [Leu-Leu] | <0.122 |  | toxin production inhibitor
9 | Lys-Arg | 5536 |  | 
10 | Leu-Asn | 381 |  | 
11 | Trp-Arg | 6468 |  | 
12 | O=NO [Nitrite] | 383 |  | 
13 | Pro-Hyp | 7523 |  | 
14 | Lys-Asp | 335 |  | 
15 | NCCCCC(=O)O [δ-Amino-N-Valeric acid] | 435 |  | 
16 | His-Leu | 376 |  | 
17 | Gly-Trp | 3632 |  | 
18 | Tyr-Ala | 186 |  | 
19 | Gly-D-Asp | 1537 |  | 
20 | Gly-Arg | 352 |  | 
21 | 2,3-Butanone | <0.122 |  | 
22 | NC(=O)CCCCC1CCSS1 (racemic) [D,L-Lipoamide] | <0.122 |  | 
23 | Arg-Tyr | 8819 |  | 
24 | CCC(C)C(NC(=O)C(N)CC(C)C)C(=O)O (stereo not drawn) [Leu-Ile] (H-Leu-Ile-OH; configuration not given here) | <0.122 |  | toxin production inhibitor

Row | Compound | Toxin [ng/mL] | Toxin induction (rank, in words) | Effect on toxin production (in words)
25 | Pro-Arg | 2967 |  | 
26 | Ala-Gly | 2130 |  | 
27 | OP(O)(O)=S [Thiophosphate] | <0.122 |  | 
28 | Gly-Ser | <0.122 |  | 
29 | Arg-Arg | 8229 |  | 
30 | O=C(O)[C@@H]1CCCN1 [L-Proline] |  | highest toxin inducer in the amino acid category | 
31 | Gly-Gly-Leu | 215 |  | 
32 | Arg-Phe | 6541 |  | 
33 | Trp-Tyr | 134 |  | 
34 | Lys-Ser | 5105 |  | 
35 | Thr-Gln | <0.122 |  | 
36 | O=P1([O-])OP(=O)([O-])OP(=O)([O-])O1.[Na+].[Na+].[Na+] [Trimetaphosphate] | <0.122 |  | 
37 | [βAla]-Gly | 1547 |  | 
38 | Ser-Leu | 187 |  | 
39 | Trp-Val | 184 |  | 
40 | CC(C)CC(N)C(=O)NC(Cc1ccccc1)C(=O)O (stereo not drawn) [Leu-Phe] (H-Leu-Phe-OH; configuration not given here) | <0.122 |  | toxin production inhibitor
41 | Arg-Asp | 10371 |  | 
42 | Ser-Pro | 7136 |  | 
43 | Tyr-Tyr | 174 |  | 
44 | Val-Ser | <0.122 |  | 
45 | Gly-D-Thr | 157 |  | 
46 | O=P(O)(O)OP(=O)(O)O [Pyrophosphate] | <0.122 |  | 
47 | His-Trp | 178 |  | 
48 | [dA]-Gly-Gly | 515 |  | 

Row | Compound | Toxin [ng/mL] | Toxin induction (rank, in words) | Effect on toxin production (in words)
49 | Trp-Trp | 4104 |  | 
50 | Val-Tyr-Val | 296 |  | 
51 | NCCCCCC(=O)O [ε-Amino-N-Caproic acid] | 3389 |  | 
52 | CSCCC(NC(=O)C(N)CC(C)C)C(=O)O (stereo not drawn) [Leu-Met] (H-Leu-Met-OH; configuration not given here) | <0.122 |  | toxin production inhibitor
53 | Ala-Pro | <0.122 |  | 
54 | Gly-Asp | 1507 |  | 
55 | Lys-Lys | 150 |  | 
56 | Leu-Trp | <0.122 |  | toxin production inhibitor
57 | Gly-Phe-Phe | 298 |  | 
58 | Trp-Ala | 415 |  | 
59 | Lys-Phe | <0.122 |  | 
60 | Arg-Glu | 4059 |  | 
61 | Val-Glu | 178 |  | 
62 | CC(O)C(N)=O (racemic) [D,L-Lactamide] | 2859 |  | 
63 | γ-D-Glu-Gly | 10122 |  | 
64 | NCCO [2-Aminoethanol] | 173 |  | 
65 | Gly-Gly-Gly | 1811 |  | 
66 | Val-Pro | 183 |  | 
67 | Arg-Trp | 8423 |  | 
68 | Lys-Gly | 1950 |  | 
69 | His-Pro | 8568 |  | 
70 | Leu-Ser | 116 |  | 
71 | Lys-Glu | 271 |  | 
72 | CC(C)CC(N)C(=O)NC(CC(C)C)C(=O)NC(CC(C)C)C(=O)O (stereo not drawn) [Leu-Leu-Leu] (H-Leu-Leu-Leu-OH; configuration not given here) | <0.122 |  | toxin production inhibitor

These compounds were tested on C. difficile ATCC 9689 (assay: Bacterial mass in wells of PM panels (OD 750 nm)). Details: OD difference with vs without C. difficile, 72 h; carbon source (PM01/PM02).
Assay type: cell-based, Clostridium difficile

Row | Compound | C. difficile Mass
73 | 2,3-Butanone | 0.0572 OD (750 nm)
74 | Ala-Gly | 0.0934 OD (750 nm)
75 | Gly-Asp | 0.1004 OD (750 nm)
76 | NCCO [2-Aminoethanol] | 0.0853 OD (750 nm)

Same assay, conditions: OD difference with vs without C. difficile, 72 h; nitrogen source (PM03/06/07/08)

Row | Compound | C. difficile Mass
77 | Tyr-Phe | 0.0559 OD (750 nm)
78 | Lys-Trp | 0.006 OD (750 nm)
79 | Nc1ncnc2nc[nH]c12 [Adenine] | 0.031 OD (750 nm)
80 | CCCCN [N-Butylamine] | 0.0407 OD (750 nm)
81 | Arg-Gln | 0.0476 OD (750 nm)
82 | Val-Asp | 0.0469 OD (750 nm)
83 | CC(C)C[C@H](NC(=O)[C@@H](N)CC(C)C)C(=O)O [Leu-Leu] | 0.0530 OD (750 nm)
84 | Lys-Arg | 0.0502 OD (750 nm)
85 | Leu-Asn | 0.0482 OD (750 nm)
86 | Trp-Arg | 0.0628 OD (750 nm)
87 | O=NO [Nitrite] | 0.0333 OD (750 nm)
88 | Pro-Hyp | 0.045 OD (750 nm)
89 | Lys-Asp | 0.0525 OD (750 nm)
90 | NCCCCC(=O)O [δ-Amino-N-Valeric acid] | 0.0424 OD (750 nm)
91 | His-Leu | 0.0495 OD (750 nm)
92 | Gly-Trp | 0.0431 OD (750 nm)
93 | Tyr-Ala | 0.0331 OD (750 nm)
94 | Gly-D-Asp | 0.0467 OD (750 nm)
95 | Gly-Arg | 0.0403 OD (750 nm)
96 | Arg-Tyr | 0.0455 OD (750 nm)
97 | CCC(C)C(NC(=O)C(N)CC(C)C)C(=O)O (stereo not drawn) [Leu-Ile] (H-Leu-Ile-OH; configuration not given here) | 0.0523 OD (750 nm)

Row | Compound | C. difficile Mass
98 | Pro-Arg | 0.0442 OD (750 nm)
99 | Gly-Ser | 0.0471 OD (750 nm)
100 | Arg-Arg | 0.0435 OD (750 nm)
101 | O=C(O)[C@@H]1CCCN1 [L-Proline] | 0.0394 OD (750 nm)
102 | Gly-Gly-Leu | 0.0305 OD (750 nm)
103 | Arg-Phe | 0.0467 OD (750 nm)
104 | Trp-Tyr | 0.0451 OD (750 nm)
105 | Lys-Ser | 0.0426 OD (750 nm)
106 | Thr-Gln | 0.0403 OD (750 nm)
107 | [βAla]-Gly | 0.0389 OD (750 nm)
108 | Ser-Leu | 0.0404 OD (750 nm)
109 | Trp-Val | 0.0276 OD (750 nm)
110 | CC(C)CC(N)C(=O)NC(Cc1ccccc1)C(=O)O (stereo not drawn) [Leu-Phe] (H-Leu-Phe-OH; configuration not given here) | 0.0538 OD (750 nm)
111 | Arg-Asp | 0.0444 OD (750 nm)
112 | Ser-Pro | 0.0472 OD (750 nm)
113 | Tyr-Tyr | 0.0415 OD (750 nm)
114 | Val-Ser | 0.0455 OD (750 nm)
115 | Gly-D-Thr | 0.0549 OD (750 nm)
116 | His-Trp | 0.0442 OD (750 nm)
117 | [dA]-Gly-Gly | 0.0538 OD (750 nm)
118 | Trp-Trp | 0.055 OD (750 nm)

Row | Compound | C. difficile Mass
119 | Val-Tyr-Val | 0.0382 OD (750 nm)
120 | NCCCCCC(=O)O [ε-Amino-N-Caproic acid] | 0.0366 OD (750 nm)
121 | CSCCC(NC(=O)C(N)CC(C)C)C(=O)O (stereo not drawn) [Leu-Met] (H-Leu-Met-OH; configuration not given here) | 0.0501 OD (750 nm)
122 | Ala-Pro | 0.0507 OD (750 nm)
123 | Lys-Lys | 0.0427 OD (750 nm)
124 | Leu-Trp | 0.0380 OD (750 nm)
125 | Gly-Phe-Phe | 0.2751 OD (750 nm)
126 | Trp-Ala | 0.0489 OD (750 nm)
127 | Lys-Phe | 0.0533 OD (750 nm)
128 | Arg-Glu | 0.0404 OD (750 nm)
129 | Val-Glu | 0.0481 OD (750 nm)
130 | CC(O)C(N)=O (racemic) [D,L-Lactamide] | 0.04 OD (750 nm)
131 | γ-D-Glu-Gly | 0.0519 OD (750 nm)
132 | Gly-Gly-Gly | 0.0456 OD (750 nm)
133 | Val-Pro | 0.0425 OD (750 nm)
134 | Arg-Trp | 0.0499 OD (750 nm)
135 | Lys-Gly | 0.047 OD (750 nm)
136 | His-Pro | 0.0481 OD (750 nm)
137 | Leu-Ser | 0.037 OD (750 nm)
138 | Lys-Glu | 0.0425 OD (750 nm)
139 | CC(C)CC(N)C(=O)NC(CC(C)C)C(=O)NC(CC(C)C)C(=O)O (stereo not drawn) [Leu-Leu-Leu] (H-Leu-Leu-Leu-OH; configuration not given here) | 0.0463 OD (750 nm)

Same assay, conditions: OD difference with vs without C. difficile, 72 h; phosphorus/sulfur source panel PM04

Row | Compound | C. difficile Mass
140 | Nc1ccn([C@@H]2O[C@@H]3COP(=O)(O)O[C@H]3[C@H]2O)c(=O)n1 [Cytidine 3′,5′-Cyclic Monophosphate] | 0.0106 OD (750 nm)
141 | NC(=O)CCCCC1CCSS1 (racemic) [D,L-Lipoamide] | 0.0265 OD (750 nm)
142 | OP(O)(O)=S [Thiophosphate] | 0.0373 OD (750 nm)
143 | O=P1([O-])OP(=O)([O-])OP(=O)([O-])O1.[Na+].[Na+].[Na+] [Trimetaphosphate] | 0.0493 OD (750 nm)
144 | O=P(O)(O)OP(=O)(O)O [Pyrophosphate] | 0.0075 OD (750 nm)
